# PubChem BioAssay (NCI)
#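 Growth conditions: 96-well plates. Treatment: test compound, 48 hours, 5 concentrations. Analysis: linear interpolation between bracketing concentrations; unreached endpoints set to highest concentration. TGI denotes the concentration required for complete inhibition of growth.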
# What was measured:
# Assay in all cases: growth of human tumour cells (NCI), 48 h
# SW-620 colon = system: SW-620 colon
# OVCAR-8 ovarian = system: OVCAR-8 ovarian
# OVCAR-5 ovarian = system: OVCAR-5 ovarian
# SK-MEL-2 melanoma = system: SK-MEL-2 melanoma
# BT-549 breast = system: BT-549 breast
# CCRF-CEM leukemia = system: CCRF-CEM leukemia
# LOX IMVI melanoma = system: LOX IMVI melanoma
# ACHN renal = system: ACHN renal
# MCF7 breast = system: MCF7 breast
# K-562 leukemia = system: K-562 leukemia
# HCT-15 colon = system: HCT-15 colon
# SNB-75 CNS = system: SNB-75 CNS
# SF-295 CNS = system: SF-295 CNS
# SN12C renal = system: SN12C renal
# SK-OV-3 ovarian = system: SK-OV-3 ovarian
# SK-MEL-28 melanoma = system: SK-MEL-28 melanoma
# MDA-N = system: MDA-N
# 786-0 renal = system: 786-0 renal
# M14 melanoma = system: M14 melanoma
# A549 NSCLC = system: A549 NSCLC
# OVCAR-4 ovarian = system: OVCAR-4 ovarian
# OVCAR-3 ovarian = system: OVCAR-3 ovarian
# EKVX NSCLC = system: EKVX NSCLC
# MOLT-4 leukemia = system: MOLT-4 leukemia
# MDA-MB-435 = system: MDA-MB-435
# UO-31 renal = system: UO-31 renal
# NCI/ADR-RES ovarian = system: NCI/ADR-RES ovarian
# CAKI-1 renal = system: CAKI-1 renal
# RPMI-8226 leukemia = system: RPMI-8226 leukemia
# HCT-116 colon = system: HCT-116 colon
# HOP-62 NSCLC = system: HOP-62 NSCLC
# DU-145 prostate = system: DU-145 prostate
# T-47D breast = system: T-47D breast
# SNB-19 CNS = system: SNB-19 CNS
# UACC-62 melanoma = system: UACC-62 melanoma
# KM12 colon = system: KM12 colon
# SR leukemia = system: SR leukemia
# SK-MEL-5 melanoma = system: SK-MEL-5 melanoma
# UACC-257 melanoma = system: UACC-257 melanoma
# PC-3 prostate = system: PC-3 prostate
# RXF 393 renal = system: RXF 393 renal
# A498 renal = system: A498 renal
# U251 CNS = system: U251 CNS
# COLO 205 colon = system: COLO 205 colon
# HCC-2998 colon = system: HCC-2998 colon
# HOP-92 NSCLC = system: HOP-92 NSCLC
# HL-60(TB) leukemia = system: HL-60(TB) leukemia
# NCI-H460 lung = system: NCI-H460 lung
# NCI-H23 lung = system: NCI-H23 lung
# TK-10 renal = system: TK-10 renal
# IGROV1 ovarian = system: IGROV1 ovarian
# HT29 colon = system: HT29 colon
# NCI-H522 lung = system: NCI-H522 lung
# SF-268 CNS = system: SF-268 CNS
# NCI-H226 lung = system: NCI-H226 lung
# MALME-3M melanoma = system: MALME-3M melanoma
# SF-539 CNS = system: SF-539 CNS
structure (smiles),measurement,setting,value
CCOC(=O)C1=c2[nH]c3cccc4cccc(c43)n2C(=O)CC1,TGI,SW-620 colon,71.3 µM
same,TGI,OVCAR-8 ovarian,> 100 µM
same,TGI,OVCAR-5 ovarian,> 100 µM
same,TGI,SK-MEL-2 melanoma,> 100 µM
same,TGI,BT-549 breast,> 100 µM
same,TGI,CCRF-CEM leukemia,> 100 µM
same,TGI,LOX IMVI melanoma,62.2 µM
same,TGI,ACHN renal,> 100 µM
same,TGI,MCF7 breast,> 100 µM
same,TGI,K-562 leukemia,> 100 µM
same,TGI,HCT-15 colon,> 100 µM
same,TGI,SNB-75 CNS,> 100 µM
same,TGI,SF-295 CNS,> 100 µM
same,TGI,SN12C renal,> 100 µM
same,TGI,SK-OV-3 ovarian,> 100 µM
same,TGI,SK-MEL-28 melanoma,> 100 µM
same,TGI,MDA-N,> 100 µM
same,TGI,786-0 renal,> 100 µM
same,TGI,M14 melanoma,> 100 µM
same,TGI,A549 NSCLC,> 100 µM
same,TGI,OVCAR-4 ovarian,> 100 µM
same,TGI,OVCAR-3 ovarian,> 100 µM
same,TGI,EKVX NSCLC,> 100 µM
same,TGI,MOLT-4 leukemia,> 100 µM
same,TGI,MDA-MB-435,> 100 µM
same,TGI,UO-31 renal,> 100 µM
same,TGI,NCI/ADR-RES ovarian,> 100 µM
same,TGI,CAKI-1 renal,> 100 µM
same,TGI,RPMI-8226 leukemia,> 100 µM
same,TGI,HCT-116 colon,> 100 µM
same,TGI,HOP-62 NSCLC,> 100 µM
same,TGI,DU-145 prostate,> 100 µM
same,TGI,T-47D breast,69.8 µM
same,TGI,SNB-19 CNS,> 100 µM
same,TGI,UACC-62 melanoma,> 100 µM
same,TGI,KM12 colon,89.3 µM
same,TGI,SR leukemia,> 100 µM
same,TGI,SK-MEL-5 melanoma,> 100 µM
same,TGI,UACC-257 melanoma,> 100 µM
same,TGI,PC-3 prostate,> 100 µM
same,TGI,RXF 393 renal,> 100 µM
same,TGI,A498 renal,> 100 µM
same,TGI,U251 CNS,> 100 µM
same,TGI,COLO 205 colon,> 100 µM
same,TGI,HCC-2998 colon,> 100 µM
same,TGI,HOP-92 NSCLC,> 100 µM
same,TGI,HL-60(TB) leukemia,64 µM
same,TGI,NCI-H460 lung,> 100 µM
same,TGI,NCI-H23 lung,> 100 µM
same,TGI,TK-10 renal,> 100 µM
same,TGI,IGROV1 ovarian,> 100 µM
C#Cc1cc(-c2nc3ccccc3s2)ccc1N,TGI,SW-620 colon,81.8 µM
same,TGI,OVCAR-8 ovarian,> 100 µM
same,TGI,OVCAR-5 ovarian,> 100 µM
same,TGI,SK-MEL-2 melanoma,35.9 µM
same,TGI,BT-549 breast,94.9 µM
same,TGI,CCRF-CEM leukemia,56 µM
same,TGI,LOX IMVI melanoma,27.8 µM
same,TGI,ACHN renal,70.3 µM
same,TGI,MCF7 breast,31.4 µM
same,TGI,HT29 colon,33 µM
same,TGI,K-562 leukemia,89 µM
same,TGI,HCT-15 colon,42.8 µM
same,TGI,SF-295 CNS,54.8 µM
same,TGI,NCI-H522 lung,32.3 µM
same,TGI,SN12C renal,79 µM
same,TGI,SK-OV-3 ovarian,69.7 µM
same,TGI,SK-MEL-28 melanoma,35.6 µM
same,TGI,MDA-N,97.6 µM
same,TGI,786-0 renal,> 100 µM
same,TGI,M14 melanoma,34.5 µM
same,TGI,A549 NSCLC,42.8 µM
same,TGI,OVCAR-4 ovarian,47.1 µM
same,TGI,OVCAR-3 ovarian,42.4 µM
same,TGI,EKVX NSCLC,65 µM
same,TGI,MOLT-4 leukemia,91.1 µM
same,TGI,SF-268 CNS,> 100 µM
same,TGI,MDA-MB-435,40.4 µM
same,TGI,UO-31 renal,56.3 µM
same,TGI,NCI/ADR-RES ovarian,86.5 µM
same,TGI,NCI-H226 lung,47.8 µM
same,TGI,MALME-3M melanoma,63.4 µM
same,TGI,CAKI-1 renal,50.4 µM
same,TGI,RPMI-8226 leukemia,76.8 µM
same,TGI,HCT-116 colon,32.9 µM
same,TGI,HOP-62 NSCLC,> 100 µM
same,TGI,DU-145 prostate,39.5 µM
same,TGI,T-47D breast,45.6 µM
same,TGI,SNB-19 CNS,66.9 µM
same,TGI,UACC-62 melanoma,36.6 µM
same,TGI,KM12 colon,46.9 µM
same,TGI,SR leukemia,92.4 µM
same,TGI,SK-MEL-5 melanoma,68.6 µM
same,TGI,UACC-257 melanoma,27.9 µM
same,TGI,PC-3 prostate,94.1 µM
same,TGI,RXF 393 renal,93.9 µM
same,TGI,U251 CNS,63.6 µM
same,TGI,COLO 205 colon,32.9 µM
same,TGI,HCC-2998 colon,32.6 µM
same,TGI,HOP-92 NSCLC,44.7 µM
same,TGI,HL-60(TB) leukemia,> 100 µM
same,TGI,NCI-H460 lung,74.5 µM
same,TGI,SF-539 CNS,81.3 µM
same,TGI,NCI-H23 lung,55.9 µM
same,TGI,TK-10 renal,36.8 µM
same,TGI,IGROV1 ovarian,53.8 µM
